Test results reported in article PMC10799085, “A miniaturized mode-of-action profiling platform enables high throughput characterization of the molecular and cellular dynamics of EZH2 inhibition” (Scientific Reports, 2024).
Read-outs that look alike come from different tables or passages of the source.

Key:
Type in all cases: binding
PRC2/EZH2Y641N [1] = molecular target: T1, PRC2/EZH2Y641N (Homo sapiens, UniProt Q15910, Y641N); assay: Equilibrium probe competition assay (ePCA), TR-FRET
T1 construct: Synthetic cDNA encoding N-terminal 6His-tagged full length EZH2^Y641N; 6His (N); made in house; host or cells: Sf9 insect cells (baculovirus co-infection)

PRC2/EZH2Y641N [2] = molecular target: T1, PRC2/EZH2Y641N; assay: Kinetic probe competition assay (kPCA), TR-FRET
From the text: (§1) Biotinylated PRC2 complexes and the fluorescent probe used in TR-FRET assays were generated as described in the supplementary methods section.

PRC2/EZH2+/+ = molecular target: T2, PRC2/EZH2+/+ (Homo sapiens, UniProt Q15910); assay: Kinetic probe competition assay (kPCA), TR-FRET
T2 construct: purchased Active Motif
Method: as §1
For measurements at 25, 30 and 37 °C, the temperature control functionality of the instrument was used.
TR-FRET kPCA traces were exported via Microsoft Excel to GraphPad Prism, where non-specific signals were subtracted and kinetic association competition traces were fitted to the Motulsky–Mahan model “kinetics of competitive binding” to obtain kon (k3), koff (k4) and KD parameters.

[3] = EZH2Y641N (- H3K27me3), sheet ePCA&kPCA RT
[4] = EZH2Y641N (+ H3K27me3), RT sheet

Q: With Cc1cc(C)c(CN2CCc3c(Cl)cc(-c4c(C)noc4C)c(Cl)c3C2=O)c(=O)[nH]1 [Compound 14] as the compound, how does the “Ligand Efficiency” value (PRC2/EZH2Y641N [1]; EZH2Y641N (+ H3K27me3)) read?
A: 1.6

Q: What about the Ki (PRC2/EZH2Y641N [1]; EZH2Y641N (+ H3K27me3), equilibrium, RT sheet) of the same compound?
A: 1.35 nM

Q: What about the “Ligand Efficiency” value (PRC2/EZH2Y641N [1]; EZH2Y641N (- H3K27me3)) of the same compound?
A: 1.5

Q: What about the Ki (PRC2/EZH2Y641N [1]; [3]) of the same compound?
A: 2.99 nM

Q: What about the “Kinetic Efficiency” value (PRC2/EZH2Y641N [2]; EZH2Y641N (+ H3K27me3)) of the same compound?
A: 2.02E-02

Q: And the koff (PRC2/EZH2Y641N [2]; [4])?
A: 0.000921 s⁻¹

Q: And the kon (PRC2/EZH2Y641N [2]; [4])?
A: 1.28e+06 M⁻¹ s⁻¹

Q: And the “Calculated RT” value (PRC2/EZH2Y641N [2]; EZH2Y641N (+ H3K27me3))?
A: 0.16 h

Q: What about the Kd (PRC2/EZH2Y641N [2]; EZH2Y641N (+ H3K27me3), kinetic, RT sheet) of the same compound?
A: 0.68 nM

Q: What about the “Kinetic Efficiency” value (PRC2/EZH2Y641N [2]; EZH2Y641N (- H3K27me3)) of the same compound?
A: 2.35E-02

Q: And the “Calculated RT” value (PRC2/EZH2Y641N [2]; EZH2Y641N (- H3K27me3))?
A: 0.19 h

Q: What about the Kd (PRC2/EZH2Y641N [2]; [3]) of the same compound?
A: 2.83 nM

Q: What about the koff (PRC2/EZH2Y641N [2]; [3]) of the same compound?
A: 0.00136 s⁻¹

Q: What about the kon (PRC2/EZH2Y641N [2]; [3]) of the same compound?
A: 496000 M⁻¹ s⁻¹

Q: What about the “Kinetic Efficiency” value (PRC2/EZH2+/+; EZH2+/+ (+ H3K27me3)) of the same compound?
A: 3.61E-02

Q: And the “Calculated RT” value (PRC2/EZH2+/+; EZH2+/+ (+ H3K27me3))?
A: 0.29 h

Q: And the Kd (PRC2/EZH2+/+; EZH2+/+ (+ H3K27me3), sheet ePCA&kPCA RT, read-out: Kinetic Kd)?
A: 0.303 nM

Q: What about the koff (PRC2/EZH2+/+; EZH2+/+ (+ H3K27me3), sheet ePCA&kPCA RT, read-out: Kinetic koff) of the same compound?
A: 0.000323 s⁻¹

Q: And the kon (PRC2/EZH2+/+; EZH2+/+ (+ H3K27me3), sheet ePCA&kPCA RT, read-out: Kinetic kon)?
A: 1.06e+06 M⁻¹ s⁻¹

Q: And the “Kinetic Efficiency” value (PRC2/EZH2+/+; EZH2+/+ (- H3K27me3))?
A: 2.67E-02

Q: And the “RT (Calculated)” value (PRC2/EZH2+/+; EZH2+/+ (- H3K27me3), 5 °C)?
A: 2.28 h

Q: What about the koff (PRC2/EZH2+/+; EZH2+/+ (- H3K27me3), 5 °C, read-out: koff (Kinetic)) of the same compound?
A: 0.000251 s⁻¹

Q: And the koff (PRC2/EZH2+/+; EZH2+/+ (- H3K27me3), 5 °C, read-out: koff calc (Calculated))?
A: 0.000122 s⁻¹

Q: And the kon (PRC2/EZH2+/+; EZH2+/+ (- H3K27me3), 5 °C, read-out: kon (Kinetic))?
A: 111000 M⁻¹ s⁻¹

Q: And the “RT (Calculated)” value (PRC2/EZH2+/+; EZH2+/+ (- H3K27me3), 15 °C)?
A: 0.613 h

Q: And the Kd (PRC2/EZH2+/+; EZH2+/+ (- H3K27me3), 15 °C, read-out: Kd (Kinetic))?
A: 0.378 nM

Q: What about the koff (PRC2/EZH2+/+; EZH2+/+ (- H3K27me3), 15 °C, read-out: koff (Kinetic)) of the same compound?
A: 0.000211 s⁻¹

Q: And the kon (PRC2/EZH2+/+; EZH2+/+ (- H3K27me3), 15 °C, read-out: kon (Kinetic))?
A: 559000 M⁻¹ s⁻¹

Q: And the “RT (Calculated)” value (PRC2/EZH2+/+; EZH2+/+ (- H3K27me3), 30 °C)?
A: 0.244 h

Q: What about the Kd (PRC2/EZH2+/+; EZH2+/+ (- H3K27me3), 30 °C, read-out: Kd (Kinetic)) of the same compound?
A: 5.24 nM

Q: And the koff (PRC2/EZH2+/+; EZH2+/+ (- H3K27me3), 30 °C, read-out: koff (Kinetic))?
A: 0.00307 s⁻¹

Q: What about the koff (PRC2/EZH2+/+; EZH2+/+ (- H3K27me3), 30 °C, read-out: koff calc (Calculated)) of the same compound?
A: 0.00114 s⁻¹

Q: And the kon (PRC2/EZH2+/+; EZH2+/+ (- H3K27me3), 30 °C, read-out: kon (Kinetic))?
A: 582000 M⁻¹ s⁻¹

Q: What about the “RT (Calculated)” value (PRC2/EZH2+/+; EZH2+/+ (- H3K27me3), 37 °C) of the same compound?
A: 0.14 h

Q: And the Kd (PRC2/EZH2+/+; EZH2+/+ (- H3K27me3), 37 °C, read-out: Kd (Kinetic))?
A: 2.4 nM

Q: And the koff (PRC2/EZH2+/+; EZH2+/+ (- H3K27me3), 37 °C, read-out: koff (Kinetic))?
A: 0.00199 s⁻¹

Q: What about the koff (PRC2/EZH2+/+; EZH2+/+ (- H3K27me3), 37 °C, read-out: koff calc (Calculated)) of the same compound?
A: 0.00194 s⁻¹

Q: What about the kon (PRC2/EZH2+/+; EZH2+/+ (- H3K27me3), 37 °C, read-out: kon (Kinetic)) of the same compound?
A: 845000 M⁻¹ s⁻¹

Q: And the “Calculated RT” value (PRC2/EZH2+/+; EZH2+/+ (- H3K27me3))?
A: 0.21 h
